Measurements as given in ChEMBL document CHEMBL3745662, “Preliminary investigation of 6,7-dihydropyrazolo[1,5-a]pyrazin-4-one derivatives as a novel series of mGlu5 receptor positive allosteric modulators with efficacy in preclinical models of schizophrenia” (Bioorg Med Chem Lett, 2016).
Values after ≈ are worked out from the molar mass of the structure shown. One block for each compound: values may come before it. Active and inactive are the calls of the source. No cut-off for these calls is given here.

Key:
[1] = biological target: T1, Metabotropic glutamate receptor 5 (Homo sapiens, UniProt P41594); assay: Positive allosteric modulation of human mGlu5 expressed in HEK293 cells assessed as glutamate-induced calcium mobilization; type: functional, cell-based; details: read-out: EC50
Target sequence in this assay (P41594 whole entry): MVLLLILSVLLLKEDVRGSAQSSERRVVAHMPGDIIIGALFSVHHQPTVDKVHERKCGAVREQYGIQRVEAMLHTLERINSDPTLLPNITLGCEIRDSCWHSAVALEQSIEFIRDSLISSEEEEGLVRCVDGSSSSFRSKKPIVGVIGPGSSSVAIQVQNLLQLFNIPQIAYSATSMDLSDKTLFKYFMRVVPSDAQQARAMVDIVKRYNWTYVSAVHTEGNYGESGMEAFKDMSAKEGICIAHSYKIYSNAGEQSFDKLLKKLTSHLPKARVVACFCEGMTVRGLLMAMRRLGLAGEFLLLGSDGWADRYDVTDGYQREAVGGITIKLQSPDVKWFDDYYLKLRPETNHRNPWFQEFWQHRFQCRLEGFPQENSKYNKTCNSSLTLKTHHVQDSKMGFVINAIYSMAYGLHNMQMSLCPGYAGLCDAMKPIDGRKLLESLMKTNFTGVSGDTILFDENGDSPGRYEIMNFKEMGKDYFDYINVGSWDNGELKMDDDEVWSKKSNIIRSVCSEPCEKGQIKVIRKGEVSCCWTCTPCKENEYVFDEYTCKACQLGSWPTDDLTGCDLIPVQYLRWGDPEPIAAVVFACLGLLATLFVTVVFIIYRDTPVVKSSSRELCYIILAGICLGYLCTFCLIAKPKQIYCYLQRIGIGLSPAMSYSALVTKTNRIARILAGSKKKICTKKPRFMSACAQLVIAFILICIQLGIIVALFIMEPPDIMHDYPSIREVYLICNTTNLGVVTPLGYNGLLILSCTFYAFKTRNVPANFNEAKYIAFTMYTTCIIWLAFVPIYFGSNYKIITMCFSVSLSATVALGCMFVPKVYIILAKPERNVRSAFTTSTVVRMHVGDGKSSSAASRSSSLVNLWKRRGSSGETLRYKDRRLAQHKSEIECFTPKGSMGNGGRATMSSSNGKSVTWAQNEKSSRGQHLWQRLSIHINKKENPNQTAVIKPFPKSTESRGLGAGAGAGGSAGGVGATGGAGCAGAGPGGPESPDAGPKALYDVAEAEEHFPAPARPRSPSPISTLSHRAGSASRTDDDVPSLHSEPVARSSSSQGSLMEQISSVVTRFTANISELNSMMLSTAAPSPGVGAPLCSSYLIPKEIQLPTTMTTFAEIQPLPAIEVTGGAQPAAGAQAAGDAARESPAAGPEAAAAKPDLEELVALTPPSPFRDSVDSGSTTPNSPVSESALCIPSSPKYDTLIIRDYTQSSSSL

[2] = biological target: T1, Metabotropic glutamate receptor 5; assay: Positive allosteric modulation of human mGlu5 expressed in HEK293 cells assessed as glutamate-induced calcium mobilization relative to glutamate; type: functional, cell-based
Target sequence in this assay (P41594 21-1212 limits assumed): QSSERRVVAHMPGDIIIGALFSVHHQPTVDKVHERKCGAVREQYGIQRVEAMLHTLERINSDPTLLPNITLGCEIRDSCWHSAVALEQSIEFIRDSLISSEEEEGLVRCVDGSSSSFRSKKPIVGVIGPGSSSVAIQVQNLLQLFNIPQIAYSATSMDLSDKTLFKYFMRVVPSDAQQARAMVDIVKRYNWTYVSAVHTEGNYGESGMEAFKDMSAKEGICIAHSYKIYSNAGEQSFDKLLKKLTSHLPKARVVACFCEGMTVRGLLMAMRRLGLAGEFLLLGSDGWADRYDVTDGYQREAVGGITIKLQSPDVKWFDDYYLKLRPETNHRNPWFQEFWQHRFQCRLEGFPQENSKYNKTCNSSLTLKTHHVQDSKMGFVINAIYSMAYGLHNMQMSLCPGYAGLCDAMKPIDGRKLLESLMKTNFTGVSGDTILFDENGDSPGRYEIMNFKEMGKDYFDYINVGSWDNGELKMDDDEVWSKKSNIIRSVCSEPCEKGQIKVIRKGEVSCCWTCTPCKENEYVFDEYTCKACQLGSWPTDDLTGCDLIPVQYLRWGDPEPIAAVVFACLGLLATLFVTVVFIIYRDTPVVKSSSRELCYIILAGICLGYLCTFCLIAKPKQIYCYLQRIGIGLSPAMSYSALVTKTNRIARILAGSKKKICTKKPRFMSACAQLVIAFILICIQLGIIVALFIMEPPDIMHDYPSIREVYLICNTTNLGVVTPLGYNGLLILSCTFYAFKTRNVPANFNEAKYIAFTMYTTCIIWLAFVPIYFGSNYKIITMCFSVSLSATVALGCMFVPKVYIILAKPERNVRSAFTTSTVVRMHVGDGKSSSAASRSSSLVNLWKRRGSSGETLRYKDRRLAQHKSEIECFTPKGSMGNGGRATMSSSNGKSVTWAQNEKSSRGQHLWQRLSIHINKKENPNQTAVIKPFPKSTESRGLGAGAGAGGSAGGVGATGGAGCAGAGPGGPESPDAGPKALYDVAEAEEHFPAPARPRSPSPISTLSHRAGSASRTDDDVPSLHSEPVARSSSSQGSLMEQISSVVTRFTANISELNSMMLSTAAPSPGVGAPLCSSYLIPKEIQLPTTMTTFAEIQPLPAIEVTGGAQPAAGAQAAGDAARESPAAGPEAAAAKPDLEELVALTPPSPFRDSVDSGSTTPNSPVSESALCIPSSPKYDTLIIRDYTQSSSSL

[3] = biological target: Metabotropic glutamate receptor 3 (Homo sapiens, UniProt Q14832); assay: Antagonist activity at human mGlu3 expressed in HEK293 cells assessed as inhibition of glutamate-induced calcium mobilization; type: functional, cell-based
[4] = biological target: Metabotropic glutamate receptor 1 (Homo sapiens, UniProt Q13255); assay: Positive allosteric modulation of human mGlu1 receptor expressed in HEK293 cells assessed as calcium mobilization by fluorescence analysis; type: functional, cell-based
[5] = biological target: Metabotropic glutamate receptor 2 (Homo sapiens, UniProt Q14416); assay: Positive allosteric modulation of human mGlu2 receptor expressed in HEK293 cells assessed as calcium mobilization by fluorescence analysis; type: functional, cell-based
[6] = biological target: Metabotropic glutamate receptor 7 (Homo sapiens, UniProt Q14831); assay: Positive allosteric modulation of human mGlu7 receptor expressed in HEK293 cells assessed as calcium mobilization by fluorescence analysis; type: functional, cell-based
[7] = biological target: Metabotropic glutamate receptor 8 (Homo sapiens, UniProt O00222); assay: Positive allosteric modulation of human mGlu8 receptor expressed in HEK293 cells assessed as calcium mobilization by fluorescence analysis; type: functional, cell-based
[8] = biological target: T2, Metabotropic glutamate receptor 4 (Homo sapiens, UniProt Q14833); assay: Positive allosteric modulation of human mGlu4 receptor expressed in HEK293 cells assessed as calcium mobilization by fluorescence analysis; type: functional, cell-based
[9] = biological target: T2, Metabotropic glutamate receptor 4; assay: Positive allosteric modulation of human mGlu4 receptor expressed in L929sA cells assessed as calcium mobilization by fluorescence analysis; type: functional, cell-based
[10] = biological target: T2, Metabotropic glutamate receptor 4; assay: Positive allosteric modulation of human mGlu4 receptor expressed in HEK293 cells by [35S]-GTPgammaS binding assay; type: functional, cell-based
[11] = biological target: T2, Metabotropic glutamate receptor 4; assay: Positive allosteric modulation of human mGlu4 receptor expressed in L929sA cells by [35S]-GTPgammaS binding assay; type: functional, cell-based
[12] = biological target: Metabotropic glutamate receptor 6 (Rattus norvegicus, UniProt P35349); assay: Positive allosteric modulation of rat mGlu6 receptor expressed in CHO cells by [35S]-GTPgammaS binding assay; type: functional, cell-based
[13] = Percentage unbound in rat brain; type: ADME, tissue-based; details: brain tissue
Cytochrome P450 1A2 = biological target: T3, Cytochrome P450 1A2 (Homo sapiens, UniProt P05177); assay: Inhibition of CYP1A2 (unknown origin); type: ADME
T3 sequence (P05177 whole entry): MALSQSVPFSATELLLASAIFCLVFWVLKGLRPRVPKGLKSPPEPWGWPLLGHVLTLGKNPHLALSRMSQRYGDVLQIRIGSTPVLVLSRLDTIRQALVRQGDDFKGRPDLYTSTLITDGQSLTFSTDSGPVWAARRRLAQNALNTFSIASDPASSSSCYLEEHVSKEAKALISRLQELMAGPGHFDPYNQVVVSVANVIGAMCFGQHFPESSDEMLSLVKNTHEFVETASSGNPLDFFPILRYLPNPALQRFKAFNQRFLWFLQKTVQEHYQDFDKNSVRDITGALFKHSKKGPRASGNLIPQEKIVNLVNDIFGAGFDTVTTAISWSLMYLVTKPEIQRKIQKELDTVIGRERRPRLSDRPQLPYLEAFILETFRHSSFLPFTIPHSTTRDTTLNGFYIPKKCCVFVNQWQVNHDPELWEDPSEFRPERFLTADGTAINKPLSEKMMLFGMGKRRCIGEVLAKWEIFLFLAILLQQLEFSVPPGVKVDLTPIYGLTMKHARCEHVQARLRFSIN

Cytochrome P450 2C9 = Cytochrome P450 2C9 (Homo sapiens, UniProt P11712); assay: Inhibition of CYP2C9 (unknown origin); type: ADME
Cytochrome P450 2D6 = Cytochrome P450 2D6 (Homo sapiens, UniProt P10635); assay: Inhibition of CYP2D6 (unknown origin); type: ADME
Cytochrome P450 3A4 = Cytochrome P450 3A4 (Homo sapiens, UniProt P08684); assay: Inhibition of CYP3A4 (unknown origin); type: ADME
[14] = Plasma protein binding in human assessed as percentage unbound; type: ADME, cell-free
[15] = Plasma protein binding in rat assessed as percentage unbound; type: ADME, cell-free
[16] = Solubility of compound in fed state simulated intestinal fluid; type: ADME; details: simulated gi fluid
[17] = biological target: Voltage-gated inwardly rectifying potassium channel KCNH2 (Homo sapiens, UniProt Q12809); assay: Inhibition of human ERG
[18] = Inhibition of Calcium channel (unknown origin); design: species or system Homo sapiens
[19] = Inhibition of Sodium channel (unknown origin); design: species or system Homo sapiens
[20] = Plasma clearance in rat at 2.5 mg/kg, iv; type: ADME, organism-based
[21] = Volume of distribution at steady state in rat at 2.5 mg/kg, iv; type: ADME, organism-based; details: in vivo, read-out: Vdss
[22] = Half life in rat at 2.5 mg/kg, iv; type: ADME, organism-based; details: in vivo
[23] = Cmax in rat at 10 mg/kg, po; type: ADME, organism-based; design: dose 10 mg/kg, route oral; details: in vivo
[24] = AUC (0 to infinity) in rat at 10 mg/kg, po; type: ADME, organism-based; design: dose 10 mg/kg, route oral, time infinity; details: in vivo
[25] = Oral bioavailability in rat at 10 mg/kg; type: ADME, organism-based; details: in vivo
[26] = Plasma clearance in dog at 0.5 mg/kg, iv; type: ADME, organism-based, Canis lupus familiaris
[27] = Volume of distribution at steady state in dog at 0.5 mg/kg, iv; type: ADME, organism-based, Canis lupus familiaris; details: in vivo, read-out: Vdss
[28] = Half life in dog at 0.5 mg/kg, iv; type: ADME, organism-based, Canis lupus familiaris; details: in vivo
[29] = Cmax in dog at 5 mg/kg, po; type: ADME, organism-based, Canis lupus familiaris; design: dose 5 mg/kg, route oral; details: in vivo
[30] = AUC (0 to infinity) in dog at 5 mg/kg, po; type: ADME, organism-based, Canis lupus familiaris; design: dose 5 mg/kg, time infinity, route oral; details: in vivo
[31] = Oral bioavailability in dog at 5 mg/kg; type: ADME, organism-based, Canis lupus familiaris; details: in vivo
Rattus norvegicus [32] = assay: Antipsychotic-like activity in po dosed Sprague-Dawley rat assessed as reversal of amphetamine-induced hyperlocomotion; type: functional
Rattus norvegicus [33] = assay: Antipsychotic-like activity in dosed Sprague-Dawley rat assessed as full reversal of amphetamine-induced hyperlocomotion at 100 mg/kg, po; type: functional, organism-based
Rattus norvegicus [34] = assay: Procognitive activity in po dosed Sprague-Dawley rat assessed as enhancement of contexual fear conditioning acquistion treated for 30 mins prior to conditioning measured after 24 hrs; type: functional
Rattus norvegicus [35] = assay: Toxicity in Sprague-Dawley rat assessed as complusive behavior at 25 to 600 mg/kg, po; type: organism-based; details: in vivo
Rattus norvegicus [36] = assay: Toxicity in Sprague-Dawley rat assessed as pedaling movements of forepaws at 25 to 600 mg/kg, po; type: organism-based; details: in vivo
Rattus norvegicus [37] = assay: Toxicity in Sprague-Dawley rat assessed as tremors at 25 to 600 mg/kg, po; type: organism-based; details: in vivo
Rattus norvegicus [38] = assay: Toxicity in Sprague-Dawley rat assessed as mortality at 600 mg/kg, po; type: organism-based; details: in vivo
[39] = biological target: Platelet-activating factor receptor (Homo sapiens) (UniProt P25105); assay: Inhibition of human PAF at 10 uM
in vivo [40] = details: rat, po, 10 mg/kg
Description: Tmax in rat at 10 mg/kg, po

in vivo [41] = details: dog, po, 5 mg/kg

Sequence of Metabotropic glutamate receptor 3 (Q14832 whole entry): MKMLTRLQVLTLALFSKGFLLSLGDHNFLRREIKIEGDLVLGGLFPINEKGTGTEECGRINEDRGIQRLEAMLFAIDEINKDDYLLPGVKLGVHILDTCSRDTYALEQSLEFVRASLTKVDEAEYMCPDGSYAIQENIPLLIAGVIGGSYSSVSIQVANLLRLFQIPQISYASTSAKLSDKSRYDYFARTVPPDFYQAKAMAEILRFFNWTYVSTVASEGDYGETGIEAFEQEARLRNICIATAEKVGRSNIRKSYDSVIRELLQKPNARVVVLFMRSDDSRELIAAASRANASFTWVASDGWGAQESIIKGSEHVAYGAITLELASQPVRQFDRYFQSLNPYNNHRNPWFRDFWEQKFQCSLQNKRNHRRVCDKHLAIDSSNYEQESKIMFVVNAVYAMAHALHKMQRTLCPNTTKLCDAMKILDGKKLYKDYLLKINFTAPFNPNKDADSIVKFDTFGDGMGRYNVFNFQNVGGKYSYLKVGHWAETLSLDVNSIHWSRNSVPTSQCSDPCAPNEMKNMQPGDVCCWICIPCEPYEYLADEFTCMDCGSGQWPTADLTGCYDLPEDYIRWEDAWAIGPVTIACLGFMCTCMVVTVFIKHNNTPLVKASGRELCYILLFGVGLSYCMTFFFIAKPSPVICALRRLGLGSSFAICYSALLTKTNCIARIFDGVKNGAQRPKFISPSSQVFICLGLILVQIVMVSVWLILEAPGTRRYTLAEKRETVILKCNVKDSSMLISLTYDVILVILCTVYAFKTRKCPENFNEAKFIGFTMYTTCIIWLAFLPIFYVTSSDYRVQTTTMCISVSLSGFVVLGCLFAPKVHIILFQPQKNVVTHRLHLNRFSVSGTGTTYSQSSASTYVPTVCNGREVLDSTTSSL
T2 sequence (Q14833 whole entry): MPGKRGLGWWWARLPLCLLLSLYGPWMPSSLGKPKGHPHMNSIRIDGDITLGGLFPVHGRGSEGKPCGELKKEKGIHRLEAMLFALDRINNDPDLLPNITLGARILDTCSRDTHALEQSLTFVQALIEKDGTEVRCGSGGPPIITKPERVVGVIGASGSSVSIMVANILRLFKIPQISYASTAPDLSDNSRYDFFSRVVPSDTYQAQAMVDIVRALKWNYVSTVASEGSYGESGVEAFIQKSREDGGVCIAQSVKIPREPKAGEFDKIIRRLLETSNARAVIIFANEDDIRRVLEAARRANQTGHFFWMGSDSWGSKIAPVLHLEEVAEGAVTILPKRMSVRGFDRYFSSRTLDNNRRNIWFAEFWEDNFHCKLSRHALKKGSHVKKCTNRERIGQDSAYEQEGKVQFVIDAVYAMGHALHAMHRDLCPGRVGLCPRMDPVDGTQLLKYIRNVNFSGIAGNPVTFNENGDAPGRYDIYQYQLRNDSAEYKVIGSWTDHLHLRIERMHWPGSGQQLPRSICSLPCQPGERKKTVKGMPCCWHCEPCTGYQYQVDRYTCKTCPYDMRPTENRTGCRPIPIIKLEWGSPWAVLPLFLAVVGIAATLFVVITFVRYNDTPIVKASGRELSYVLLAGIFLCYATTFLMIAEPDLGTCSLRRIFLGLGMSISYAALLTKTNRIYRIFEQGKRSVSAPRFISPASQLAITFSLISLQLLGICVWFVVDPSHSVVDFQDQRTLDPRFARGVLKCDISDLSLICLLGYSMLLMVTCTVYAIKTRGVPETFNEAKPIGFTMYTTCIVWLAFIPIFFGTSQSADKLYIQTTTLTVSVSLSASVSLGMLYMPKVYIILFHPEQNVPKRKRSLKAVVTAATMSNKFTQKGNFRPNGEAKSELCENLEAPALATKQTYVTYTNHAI
Sequence of Metabotropic glutamate receptor 7 (Q14831 whole entry): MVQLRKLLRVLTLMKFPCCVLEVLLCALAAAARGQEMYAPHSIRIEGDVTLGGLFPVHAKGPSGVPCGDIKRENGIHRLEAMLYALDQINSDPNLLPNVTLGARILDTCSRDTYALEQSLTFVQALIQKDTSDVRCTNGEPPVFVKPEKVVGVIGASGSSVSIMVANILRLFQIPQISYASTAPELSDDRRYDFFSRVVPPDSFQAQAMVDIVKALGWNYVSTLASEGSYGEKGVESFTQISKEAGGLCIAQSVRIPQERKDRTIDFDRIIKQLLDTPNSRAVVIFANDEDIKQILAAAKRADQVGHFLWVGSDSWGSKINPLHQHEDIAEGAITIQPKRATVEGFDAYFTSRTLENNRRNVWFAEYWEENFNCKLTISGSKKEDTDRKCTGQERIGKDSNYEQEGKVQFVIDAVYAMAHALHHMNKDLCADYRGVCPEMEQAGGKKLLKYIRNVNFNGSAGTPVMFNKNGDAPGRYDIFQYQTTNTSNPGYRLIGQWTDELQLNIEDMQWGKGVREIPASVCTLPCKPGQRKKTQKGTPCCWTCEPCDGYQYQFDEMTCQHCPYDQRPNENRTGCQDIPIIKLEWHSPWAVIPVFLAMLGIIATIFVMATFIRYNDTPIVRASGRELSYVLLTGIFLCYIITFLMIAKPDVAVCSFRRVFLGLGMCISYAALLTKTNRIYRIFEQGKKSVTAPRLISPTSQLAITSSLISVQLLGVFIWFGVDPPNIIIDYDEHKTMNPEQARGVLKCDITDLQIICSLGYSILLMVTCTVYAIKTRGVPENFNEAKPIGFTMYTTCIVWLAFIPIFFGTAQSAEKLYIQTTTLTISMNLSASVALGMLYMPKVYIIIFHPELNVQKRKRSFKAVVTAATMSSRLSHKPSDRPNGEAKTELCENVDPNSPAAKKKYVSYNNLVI

EC50 [1]: > 30 µM
Structure (SMILES): O=C1c2cc(OCc3ccccc3)nn2CCN1c1cc(F)ccn1

Structure (SMILES): O=C1c2cc(COc3cccc(F)c3)nn2CCN1c1ccc(F)cn1
EC50 [1]: 0.091 µM | Emax [2]: 62%

Structure (SMILES): O=C1c2cc(COc3ccc(F)cc3)nn2CCN1c1ccc(F)cc1
EC50 [1]: 0.1 µM | Emax [2]: 72% | EC50 [3]: 0.034 µM

Structure (SMILES): O=C1c2cc(OCc3ccccc3)nn2CCN1c1ccc(F)cc1
EC50 [1]: 0.16 µM | Emax [2]: 54% | EC50 [3]: 3.39 µM | EC50 [4]: > 10 µM | EC50 [5]: > 10 µM | EC50 [6]: > 10 µM | EC50 [7]: > 10 µM | EC50 [8]: > 10 µM | EC50 [9]: > 10 µM | EC50 [10]: > 10 µM | EC50 [11]: > 10 µM | EC50 [12]: > 10 µM | fraction unbound [13]: 0.065

Structure (SMILES): O=C1c2cc(COc3ccccc3)nn2CCN1c1cccnc1
EC50 [1]: 2.09 µM | Emax [2]: 64%

Structure (SMILES): O=C1c2cc(COc3ccccc3)nn2CCN1c1ccncc1
EC50 [1]: 2.09 µM | Emax [2]: 72%

Structure (SMILES): O=C1c2cc(COc3ccccc3)nn2CCN1c1ccc(F)c(F)c1
EC50 [1]: 0.087 µM | Emax [2]: 81%

Structure (SMILES): O=C1c2cc(COc3ccccc3F)nn2CCN1c1ccc(F)cc1
EC50 [1]: 0.15 µM | Emax [2]: 66%

EC50 [1]: 1.23 µM | Emax [2]: 32%
Structure (SMILES): Cc1c(COc2ccccc2)nn2c1C(=O)N(c1ccc(F)cc1)CC2

EC50 [1]: > 30 µM
Structure (SMILES): O=C1c2c(Cl)c(COc3ccccc3)nn2CCN1c1ccc(F)cc1

Structure (SMILES): COc1ccc(N2CCn3nc(COc4ccccc4)cc3C2=O)nc1
EC50 [1]: 0.62 µM | Emax [2]: 74%

EC50 [1]: 7.76 µM | Emax [2]: 65%
Structure (SMILES): CC(Oc1ccccc1)c1cc2n(n1)CCN(c1ccc(F)cc1)C2=O (centres undefined)

Structure (SMILES): O=C1c2cc(COc3ccccc3)nn2CCN1c1ccc(F)cn1
EC50 [1]: 0.13 µM | Emax [2]: 72% | EC50 [3]: 6.76 µM | EC50 [4]: > 10 µM | EC50 [5]: > 10 µM | EC50 [6]: > 10 µM | EC50 [7]: > 10 µM | EC50 [8]: > 10 µM | EC50 [9]: > 10 µM | EC50 [10]: > 10 µM | EC50 [11]: > 10 µM | EC50 [12]: > 10 µM | fraction unbound [13]: 0.055 | IC50 (Cytochrome P450 1A2): ≥ 30 µM | IC50 (Cytochrome P450 2C9): ≥ 30 µM | IC50 (Cytochrome P450 2D6): ≥ 30 µM | IC50 (Cytochrome P450 3A4): ≥ 30 µM | Fu [14]: 8.2% | Fu [15]: 6.8% | solubility [16]: 13 µg/mL (≈ 38.4 µM) | IC50 [17]: > 10 µM | IC50 [18]: > 10 µM | IC50 [19]: > 10 µM | clearance [20]: 19 mL/min/kg | Vd [21]: 1.6 L/kg | half-life [22]: 1.6 h | Cmax [23]: 730 ng/mL | AUC(0-inf) [24]: 6670 ng·h/mL | bioavailability [25]: 88% | clearance [26]: 25 mL/min/kg | Vd [27]: 2.6 L/kg | half-life [28]: 2.4 h | Cmax [29]: 519 ng/mL | AUC(0-inf) [30]: 1540 ng·h/mL | bioavailability [31]: 48% | Activity (Rattus norvegicus [32]): Dose-dependent effect | Activity (Rattus norvegicus [33]): Active | Activity (Rattus norvegicus [34]): Dose-dependent effect | minimal effective dose (Rattus norvegicus [34]; read-out: MED): 0.3 mg/kg | Activity (Rattus norvegicus [35]): Toxic | Activity (Rattus norvegicus [36]): Toxic | Activity (Rattus norvegicus [37]): Toxic | Activity (Rattus norvegicus [38]): Toxic | inhibition [39]: 57% | Tmax (in vivo [40]): 4 h | Tmax (in vivo [41]): 0.7 h

Structure (SMILES): O=C1c2cc(COc3ccccc3)nn2CCN1c1ccc(F)cc1F
EC50 [1]: 0.1 µM | Emax [2]: 101%

Structure (SMILES): O=C1c2cc(COc3ccccc3)nn2CCN1c1ccccc1F
EC50 [1]: 0.16 µM | Emax [2]: 86%
